O=C1c2ccccc2-c2ccc(Br)cc21
solubility (mole fraction)
Conditions	in 1,4-dioxane	in acetonitrile	in ethanol	in ethyl acetate	in isopropanol	in methanol	in methyl acetate	in n-butanol	in n-butyl acetate	in n-propanol
278.15 K	–	0.000793	0.000435	0.00515	0.000365	0.000214	0.00408	0.000924	0.00637	0.0006
283.15 K	0.0136	0.001	0.000546	0.00603	0.000477	0.000265	0.00517	0.00119	0.00757	0.000747
288.15 K	0.0167	0.00122	0.000674	0.00732	0.000604	0.000329	0.00608	0.00148	0.00911	0.000915
293.15 K	0.0199	0.00152	0.000831	0.00865	0.000765	0.00042	0.00738	0.0018	0.0113	0.00116
298.15 K	0.0241	0.00188	0.00101	0.0102	0.000969	0.000529	0.00882	0.00221	0.0136	0.00143
303.15 K	0.0284	0.00227	0.00123	0.012	0.0012	0.00066	0.0105	0.00268	0.016	0.00173
308.15 K	0.0334	0.00273	0.00146	0.0136	0.00148	0.000828	0.0123	0.00328	0.019	0.00208
313.15 K	0.0391	0.00327	0.00174	0.016	0.00183	0.00102	0.0144	0.00393	0.0221	0.0025
318.15 K	0.0455	0.00389	0.00205	0.0183	0.00224	0.00127	0.0168	0.00466	0.0259	0.00297
323.15 K	0.0527	0.0046	0.00239	0.0212	0.0027	0.00157	0.0193	0.00553	0.03	0.0035
